The source of these data is US11759462B2, “Spirocyclic compounds as tryptophan hydroxylase inhibitors” (priority 2013, dated 2023).

Each structure is given as a SMILES string.

The first test concerns the target T1, Recombinant human TPH1 (MBP tagged) (Homo sapiens, UniProt P17752).
T1 construct: cloning full length human TPH1 cDNA in to a bacterial pMAL-c5E expression vector; made in house; host or cells: E. coli BL21 (DE3)
T1 sequence (P17752 1-444): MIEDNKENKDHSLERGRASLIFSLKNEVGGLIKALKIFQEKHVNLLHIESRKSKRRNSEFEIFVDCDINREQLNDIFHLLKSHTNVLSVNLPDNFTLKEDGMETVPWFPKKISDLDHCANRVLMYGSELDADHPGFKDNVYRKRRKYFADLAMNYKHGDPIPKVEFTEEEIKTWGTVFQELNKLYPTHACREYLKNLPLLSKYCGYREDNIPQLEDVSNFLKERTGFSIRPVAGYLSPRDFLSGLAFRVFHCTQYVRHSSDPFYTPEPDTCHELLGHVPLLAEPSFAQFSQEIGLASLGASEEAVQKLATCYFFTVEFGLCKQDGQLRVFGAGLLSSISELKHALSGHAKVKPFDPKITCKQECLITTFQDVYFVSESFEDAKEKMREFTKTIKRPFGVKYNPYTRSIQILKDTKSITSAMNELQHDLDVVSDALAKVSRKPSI
As to the kind of experiment: TPH1 in vitro inhibition assay (kinetic fluorescence). The class given is biochemical. To be noted: TPH1 Range (TPH1 inhibition IC50). A digest of the protocol:
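Final mix: 15 nM MBP-TPH1, 30 μM Trp, 36 μM 6-methyltetrahydropterin, 25 μM ferrous ammonium sulfate, 50 mM MES pH 7.1, 1% DMSO, room temperature.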
Usually IC50 stands for the concentration that gives 50% inhibition. For the molecule `COc1ccc(-c2ccc([C@@H](Oc3cc(N4CCC5(CC4)CN[C@H](C(=O)O)C5)nc(N)n3)C(F)(F)F)c(-n3ccc(C)n3)c2)cc1` [Example 1bm, (S)-8-(2-amino-6-((R)-2,2,2-trifluoro-1-(4′-methoxy-3-(3-methyl-1H-pyrazol-1-yl)-[1,1′-biphenyl]-4-yl)ethoxy)pyrimidin-4-yl)-2,8-diazaspiro[4.5]decane-3-carboxylic acid], the IC50 is less than 50 nM.

The test is the same for the next values; noted with them: read-out: TPH1 Range (TPH1 inhibition IC50).
With `Cc1ccn(-c2cc(-c3cc(Cl)cc(Cl)c3)ccc2[C@@H](Oc2cc(N3CCC4(CC3)CN[C@H](C(=O)O)C4)nc(N)n2)C(F)(F)F)n1` [Example 1bi, (S)-8-(2-amino-6-((R)-1-(3′,5′-dichloro-3-(3-methyl-1H-pyrazol-1-yl)-[1,1′-biphenyl]-4-yl)-2,2,2-trifluoroethoxy)pyrimidin-4-yl)-2,8-diazaspiro[4.5]decane-3-carboxylic acid], the IC50 is less than 50 nM.
Take `Cc1cc(-c2ccc([C@@H](Oc3cc(N4CCC5(CC4)CN[C@H](C(=O)O)C5)nc(N)n3)C(F)(F)F)c(-n3ccc(C)n3)c2)cc(C(C)(C)C)c1` [Example 1bj, (S)-8-(2-amino-6-((R)-1-(3′-(tert-butyl)-5′-methyl-3-(3-methyl-1H-pyrazol-1-yl)-[1,1′-biphenyl]-4-yl)-2,2,2-trifluoroethoxy)pyrimidin-4-yl)-2,8-diazaspiro[4.5]decane-3-carboxylic acid]: the IC50 lay within 50 to 300 nM.
With `Cc1ccn(-c2cc(-c3cccc(Cl)c3)ccc2[C@@H](Oc2cc(N3CCC4(CC3)CN[C@H](C(=O)O)C4)nc(N)n2)C(F)(F)F)n1` [Example 1bk, (S)-8-(2-amino-6-((R)-1-(3′-chloro-3-(3-methyl-1H-pyrazol-1-yl)-[1,1′-biphenyl]-4-yl)-2,2,2-trifluoroethoxy)pyrimidin-4-yl)-2,8-diazaspiro[4.5]decane-3-carboxylic acid], the IC50 is less than 50 nM.
`Cc1ccn(-c2cc(-c3ccc(C(F)(F)F)c(Cl)c3)ccc2[C@@H](Oc2cc(N3CCC4(CC3)CN[C@H](C(=O)O)C4)nc(N)n2)C(F)(F)F)n1` [Example 1bl, (S)-8-(2-amino-6-((R)-1-(3′-chloro-3-(3-methyl-1H-pyrazol-1-yl)-4′-(trifluoromethyl)-[1,1′-biphenyl]-4-yl)-2,2,2-trifluoroethoxy)pyrimidin-4-yl)-2,8-diazaspiro[4.5]decane-3-carboxylic acid]: the IC50 is less than 50 nM.
`CCOc1ccc(-c2ccc([C@@H](Oc3cc(N4CCC5(CC4)CN[C@H](C(=O)O)C5)nc(N)n3)C(F)(F)F)c(-n3ccc(C)n3)c2)cc1F` [Example 1bn, (S)-8-(2-amino-6-((R)-1-(4′-ethoxy-3′-fluoro-3-(3-methyl-1H-pyrazol-1-yl)-[1,1′-biphenyl]-4-yl)-2,2,2-trifluoroethoxy)pyrimidin-4-yl)-2,8-diazaspiro[4.5]decane-3-carboxylic acid]: the IC50 is less than 50 nM.
As to `Cc1ccn(-c2cc(-c3cc(F)c(F)c(F)c3)ccc2[C@@H](Oc2cc(N3CCC4(CC3)CN[C@H](C(=O)O)C4)nc(N)n2)C(F)(F)F)n1` [Example 1bo, (S)-8-(2-amino-6-((R)-2,2,2-trifluoro-1-(3′,4′,5′-trifluoro-3-(3-methyl-1H-pyrazol-1-yl)-[1,1′-biphenyl]-4-yl)ethoxy)pyrimidin-4-yl)-2,8-diazaspiro[4.5]decane-3-carboxylic acid], the IC50 was in the range of 50 to 300 nM.
For `Cc1ccn(-c2cc(-c3ccc(C)c(Cl)c3)ccc2[C@@H](Oc2cc(N3CCC4(CC3)CN[C@H](C(=O)O)C4)nc(N)n2)C(F)(F)F)n1` [Example 1bp, (S)-8-(2-amino-6-((R)-1-(3′-chloro-4′-methyl-3-(3-methyl-1H-pyrazol-1-yl)-[1,1′-biphenyl]-4-yl)-2,2,2-trifluoroethoxy)pyrimidin-4-yl)-2,8-diazaspiro[4.5]decane-3-carboxylic acid], the IC50 was less than 50 nM.
